Reference: PMC5400099, “5-Hydroxyethyl-3-tetradecanoyltetramic acid represents a novel treatment for intravascular catheter infections due to Staphylococcus aureus” (Journal of Antimicrobial Chemotherapy, 2016)
Converted amounts (≈) assume the structure as drawn. “And” between values parts separate entries of the source, which are not always exact repeats. Equal values may be shown once. “Also recorded” adds a separate entry of the source.

Key:
S. aureus strain USA300 = assay: MIC by broth microdilution (CLSI), strain USA300; format: cell-based; conditions: Staphylococcus aureus; USA300 (MRSA), Mueller–Hinton broth
Experimental: (§1) Community-acquired MRSA (CA-MRSA) strain USA300, its isogenic agr mutant,[17] the hospital-acquired MRSA (HA-MRSA) strain BH1CC,[18] the HA-MSSA strain BH48[19] and the MSSA strain SH1000[20] were cultured in Mueller–Hinton broth for susceptibility testing or in RPMI-1640 (Gibco) for biofilm formation. For the rat jugular vein catheter infection model, the S. aureus strain USA300 (LAC) lux[21] was used.
(§2) 5HE-C14-TMA and C14-TOA were synthesized as described previously[9] and C14-TTA as described in the Supplementary data available at JAC Online. Stock solutions of the compounds in DMSO at 10–50 mM were further diluted into tissue culture media or sodium chloride for the in vivo experiments. A DMSO solvent control was used in all in vitro experiments. The following antibiotics were used: vancomycin (Vancocin; Flynn Pharma Ltd., Republic of Ireland), daptomycin (Cubicin; Novartis, UK), gentamicin (Hospira, UK) and tigecycline (Tygacil; Pfizer Inc.). MICs were determined by broth microdilution in Mueller–Hinton broth, as recommended by the CLSI.

S. aureus strain BH1CC = assay: MIC by broth microdilution (CLSI), strain BH1CC; format: cell-based; conditions: Staphylococcus aureus; BH1CC (MRSA), Mueller–Hinton broth
Experimental: as §1, §2

[1] = system: MRSA (USA300 JE2 and BH1CC) and MSSA (SH1000 and BH48) strains; assay: MIC by broth microdilution, MRSA and MSSA strains; format: cell-based, Staphylococcus aureus; conditions: MRSA and MSSA strains investigated
Experimental: as §1, §2

S. aureus USA300 LAC = assay: Bactericidal activity (time-kill, viable counts); format: cell-based, Staphylococcus aureus; conditions: 8 × MIC
Experimental: S. aureus USA300 LAC was grown overnight in LB medium, diluted 250-fold and grown to an OD600 0.5. Cells were diluted to 1 × 10^6 per mL in challenge medium (LB plus 5HE-C14-TMA, C14-TOA or C14-TTA at 8 × MIC). Samples were removed and viable counts determined at 30 min intervals for the first hour followed by hourly sampling. The CLSI defines a compound as bactericidal if it reduces the starting inoculum colony count by at least 99.9% (3-logs).

[2] = system: S. aureus USA300lux biofilm; assay: Rat IVC (jugular vein catheter) biofilm infection model; format: in vivo; conditions: CLS 512 mg/L, 40 μL daily for 5 days
Experimental: Rats (male, Sprague–Dawley) were pre-implanted with jugular vein polyurethane catheters (13.5 cm long, outside diameter 1.1 mm, inside diameter 0.6 mm) (Charles River, UK). Daily flushing was performed with 150 μL sodium chloride [0.1% (w/v)] following introduction of 40 μL heparin (100 IU), sodium chloride 0.1% (w/v) within the lumen. IVC-biofilm infection was developed as previously reported.[24–26] Catheters were inoculated with 40 μL S. aureus USA300lux suspension at 1 × 10^4 cfu/mL ‘locked’ within the catheter for 1 day. Intravenous vancomycin (50 mg/kg) was administered twice daily at 12 h intervals to prevent systemic spread of infection. CLS consisting of 5HE-C14-TMA (40 μL) at 512 mg/L in sodium chloride 0.1% (w/v) was administered daily for 5 days upon development of infection. After 5 days of treatment, catheters were removed and luminescence imaged using a Perkin Elmer IVIS Spectrum instrument (exposure, 20 s; binning: 4, f1). Bacteria were harvested from the catheters by treatment with TrypLE^TM Express (Gibco) and washing prior to determining viable counts.

Iron chelation = format: physicochemical; conditions: data not shown

In the case of CCCCCCCCCCCCCC(=O)C1=C(O)N[C@@H](CCO)C1=O [5HE-C14-TMA, 5-hydroxyethyl-3-tetradecanoyltetramic acid], the MIC (S. aureus strain USA300) is reported as 6.25 µM and 2 µg/mL, the MIC (S. aureus strain BH1CC) is reported as 6.25 µM and 2 µg/mL and the MIC [1] is reported as 2 mg/L (≈ 5.66 µM). For the same compound, the MIC ([1]; Staphylococcus aureus) was 2 to 4 mg/L (≈ 5.66 to 11.3 µM), the Reduction of viability (S. aureus USA300 LAC; USA300, over 30 min) was 3 logs and the “Bactericidal activity (CLSI: at least 3-log reduction)” value (S. aureus USA300 LAC; planktonic USA300) was “bactericidal”. The “Catheter biofilm after CLS treatment” value [2] was “effectively eradicated; also recorded: highly effective in the eradication of MRSA biofilm” and the Iron chelation (Iron chelation) was “is an iron chelator”.
